Source: patent US10071129B2, “Method for identifying bromodomain inhibitors” (WHITEHEAD INSTITUTE FOR BIOMEDICAL RESEARCH DANA-FARBER …, priority 2011, dated 2018)

How the values were obtained:
BRD4 = BRD4 (Homo sapiens, UniProt O60885); conditions: MM.1S cells, 500 nM, 24 hours
Procedure: Approximately 1×10^8 MM1S cells were treated with 500 nM JQ1 or DMSO for 24 hours and crosslinked with 1.1% formaldehyde (10× crosslink solution contains 11% formaldehyde, 50 mM Hepes pH7.3, 100 mM NaCl, 1 mM EDTA p118.0, 0.5 mM EGTA pH8.0) to the growth media followed by two washes with PBS. Cells were scraped and frozen in liquid nitrogen. Brd4 ChIP-PCR analysis was done on these cells following the protocol in Rahl et al. Cell 2010. In brief, 75 ul of Dynal magnetic beads (Sigma) were blocked with 0.5% BSA (w/v) in PBS. Magnetic beads were bound with 6.25 ug of Brd4 antibody (Bethyl Labs, A310-985A, lot A301-985A-1, FIG. 1A or Sigma, HPA015055-100, lot A31530, FIG. 1B). […]
Brd4 ChIP and input DNA were analyzed using SYBR Green real-time PCR analysis (Applied Biosystems). […] Fold enrichment was determined from triplicate PCR reactions at five potential enhancer regions adjacent to the MYC gene in non-translocated cells (MYC_E1, MYC_E2, MYC_E3, MYC_E4, MYC_E5), the MYC transcriptional start site (MYC_TS1, MYC_TS2), IGH enhancer regions (IGH_E1, IGH_E2, IGH_E3, IGH_E4), and two negative regions upstream of the MYC enhancers (MYC_NR2, MYC_NR3) over input DNA using DDCt over the negative region MYC_NR1.

cMyc = cMyc protein levels after JQ1 treatment of multiple myeloma cells; format: cell-based; conditions: multiple myeloma cells treated with JQ1
Procedure: (§1) To test BET bromodomain inhibitors as a strategy to downregulate the cMyc transcriptional network and the mechanism of downregulation, multiple myeloma cells were treated with JQ1.

cMyc target genes = test: Genome-wide expression of cMyc target genes and MYC transcription after JQ1 treatment; format: cell-based
Procedure: as §1

multiple myeloma cells = test: Antiproliferative effect of JQ1 treatment in multiple myeloma cells; format: cell-based; conditions: multiple myeloma cells treated with JQ1
Procedure: as §1

Compound: Cc1sc2c(c1C)C(c1ccc(Cl)cc1)=N[C@@H](CC(=O)OC(C)(C)C)c1nnc(C)n1-2 [JQ1, [(S)-4-(4-Chloro-phenyl)-2,3,9-trimethyl-6H-1-thia-5,7,8,9a-tetraaza-cyclopenta[e]azulen-6-yl]-acetic acid tert-butyl ester]
- BRD4 binding to IgH enhancers and the TSS (ChIP) (BRD4): significantly depleted BRD4 binding to IgH enhancers and the TSS
- cMyc protein levels (cMyc): rapid downregulation of cMyc protein levels
- MYC transcription (cMyc target genes; multiple myeloma cells treated with JQ1): early and sustained JQ1-induced suppression of MYC transcription
- expression of cMyc target genes (cMyc target genes; multiple myeloma cells treated with JQ1, genome-wide): genome-wide downregulation of cMyc target genes
- antiproliferative effect (multiple myeloma cells): potent antiproliferative effect
